# Laboratory results taken from DBAASP.
# How the values were obtained:
# Experiment in all cases: ≥ marks a high value that may be exact or a test limit, other limits are often not marked, values filed in µg/mL are converted to µM
# [1] = test system: Staphylococcus aureus ATCC BAA-1556
# [2] = test system: Candida albicans ATCC 10231
# [3] = test system: Escherichia coli ATCC 11775
# Botrytis cinerea = test system: Botrytis cinerea
# [4] = test system: Staphylococcus aureus ATCC 12600
# [5] = test system: Shigella dysenteriae ATCC 9752
# [6] = test system: Escherichia coli ATCC 25922
# [7] = test system: Staphylococcus aureus ATCC 6538P
# [8] = test system: Bacillus subtilis ATCC 6633
# [9] = test system: Klebsiella pneumoniae ATCC 10031
# [10] = test system: Pseudomonas aeruginosa ATCC 27853
# [11] = test system: Micrococcus luteus ATCC 10240
# [12] = test system: Salmonella enterica subsp. enterica serovar Typhimurium ATCC 14028
# Escherichia coli BW25113 = test system: Escherichia coli BW25113
# [13] = test system: Escherichia coli K12 MG1655
# Bacillus subtilis 168 = test system: Bacillus subtilis 168
# [14] = test system: Micrococcus luteus CCM 144
# Staphylococcus aureus = test system: Staphylococcus aureus
# Pseudomonas aeruginosa = test system: Pseudomonas aeruginosa
# Escherichia coli B = test system: Escherichia coli B
# [15] = test system: Candida albicans F7-39/IDE99
# [16] = test system: Staphylococcus aureus NCTC 12493
# [17] = test system: Escherichia coli NCTC 10418
# [18] = test system: Candida albicans NCYC 1467
# [19] = test system: Enterococcus faecalis NCTC 12697
# [20] = test system: Staphylococcus aureus NCTC 10788
compound,measurement,setting,value
CC(C)C[C@H](NC(=O)[C@H](Cc1c[nH]c2ccccc12)NC(=O)[C@H](CCCCN)NC(=O)[C@H](CC(C)C)NC(=O)[C@H](CC(C)C)NC(=O)[C@H](CCCCN)NC(=O)[C@@H](N)CCCCN)C(N)=O [KKLLKWL],MIC,[1],≥ 100 µM
CC[C@H](C)[C@H](NC(=O)CNC(=O)[C@H](CC(C)C)NC(=O)[C@@H](NC(=O)[C@@H]1CCCN1C(=O)[C@@H](N)CCC(=O)O)[C@@H](C)CC)C(=O)N[C@H](C(=O)N[C@H](C(=O)N[C@@H](CO)C(=O)N[C@@H](CC(C)C)C(=O)N[C@@H](CC(C)C)C(=O)N[C@@H](CCCCN)C(=O)N[C@@H](CO)C(=O)N[C@@H](CC(C)C)C(N)=O)[C@@H](C)O)[C@@H](C)CC [EPILGIITSLLKSL],MIC,[2],66.8 µM
same,MIC,[3],≥ 66.8 µM
same,MIC,Botrytis cinerea,0.334 µM
same,MIC,[4],≥ 66.8 µM
CC(C)C[C@H](NC(=O)[C@H](Cc1c[nH]c2ccccc12)NC(=O)[C@H](CCCCN)NC(=O)[C@H](CCCCN)NC(=O)[C@@H](N)CC(C)C)C(=O)N[C@@H](CCCCN)C(=O)N[C@@H](CCCCN)C(N)=O [LKKWLKK],MIC,[5],≥ 212 µM
same,MIC,[6],> 212 µM
same,MIC,[7],≥ 212 µM
same,MIC,[8],≥ 212 µM
same,MIC,[9],≥ 212 µM
same,MIC,[10],> 212 µM
same,MIC,[11],≥ 106 µM
same,MIC,[12],> 212 µM
CC[C@H](C)[C@H](NC(=O)[C@@H]1CCCN1C(=O)[C@H](CCCN=C(N)N)NC(=O)[C@H](CCCN=C(N)N)NC(=O)[C@H](Cc1c[nH]c2ccccc12)NC(=O)[C@@H](N)CCCN=C(N)N)C(=O)N[C@@H](CCCN=C(N)N)C(=O)N[C@@H](CCCN=C(N)N)C(=O)N[C@@H](CCCN=C(N)N)C(=O)N1CCC[C@H]1C(=O)N[C@H](C(=O)N[C@@H](CCCN=C(N)N)C(=O)N1CCC[C@H]1C(=O)N1CCC[C@H]1C(=O)N[C@@H](Cc1c[nH]c2ccccc12)C(=O)N[C@@H](Cc1ccc(O)cc1)C(=O)N1CCC[C@H]1C(=O)O)[C@@H](C)CC [RWRRPIRRRPIRPPWYP],MIC,Escherichia coli BW25113,4 µM
CC[C@H](C)[C@H](NC(=O)[C@H](Cc1ccccc1)NC(=O)[C@H](CO)NC(=O)[C@H](CC(C)C)NC(=O)[C@@H](NC(=O)[C@H](CCCN=C(N)N)NC(=O)CN)[C@@H](C)CC)C(=O)N[C@@H](CCCCN)C(=O)NCC(=O)N[C@@H](CC(C)C)C(=O)N[C@@H](C)C(=O)N[C@@H](CCC(=O)O)C(=O)N[C@@H](Cc1cnc[nH]1)C(=O)N[C@@H](CC(C)C)C(N)=O [GRILSFIKGLAEHL],MIC,[2],6.44 µM
same,MIC,[3],≥ 64.4 µM
same,MIC,Botrytis cinerea,9.65 µM
same,MIC,[4],≥ 64.4 µM
CC[C@H](C)[C@H](NC(=O)[C@H](CC(C)C)NC(=O)[C@H](Cc1ccc(O)cc1)NC(=O)[C@H](CC(C)C)NC(=O)[C@H](CC(C)C)NC(=O)[C@H](CC(C)C)NC(=O)[C@H](CCCN=C(N)N)NC(=O)[C@H](CC(C)C)NC(=O)[C@H](CCCN=C(N)N)NC(=O)[C@H](C)NC(=O)[C@H](C)NC(=O)[C@H](C)N)C(=O)N[C@H](C(=O)N[C@@H](CCCN=C(N)N)C(=O)N[C@@H](CCCN=C(N)N)C(=O)O)[C@@H](C)O [AAARLRLLLYLITRR],MIC,[13],≥ 71.1 µM
CC[C@H](C)[C@H](NC(=O)[C@H](C)NC(=O)CNC(=O)[C@H](Cc1c[nH]c2ccccc12)NC(=O)[C@H](CC(N)=O)NC(=O)[C@@H](N)CC(C)C)C(=O)N[C@@H](CC(C)C)C(=O)N[C@@H](CCCCN)C(=O)N[C@@H](CCCCN)C(=O)N[C@H](C(=O)N[C@H](C(=O)N[C@@H](CCCCN)C(N)=O)[C@@H](C)CC)[C@@H](C)CC [LNWGAILKKIIK],MIC,Bacillus subtilis 168,2 µM
same,MIC,[14],2.7 µM
same,MIC,Staphylococcus aureus,7.3 µM
same,MIC,Pseudomonas aeruginosa,43.3 µM
same,MIC,Escherichia coli B,4.3 µM
same,MIC,[15],6 µM
CC(=O)N[C@@H](Cc1c[nH]c2ccccc12)C(=O)N[C@@H](Cc1c[nH]c2ccccc12)C(=O)N[C@@H](CC(C)C)C(=O)N[C@@H](Cc1c[nH]c2ccccc12)C(=O)N[C@@H](Cc1c[nH]c2ccccc12)C(=O)N[C@@H](CC(C)C)C(=O)N[C@@H](CCCN=C(N)N)C(=O)N[C@@H](Cc1c[nH]c2ccccc12)C(=O)N[C@@H](CC(C)C)C(N)=O [WWLWWLRWL],MIC,[1],25 µM
CC[C@H](C)[C@H](NC(=O)[C@@H]1CCCN1C(=O)[C@H](CCCN=C(N)N)NC(=O)[C@H](CCCN=C(N)N)NC(=O)[C@H](Cc1c[nH]c2ccccc12)NC(=O)[C@@H](N)CCCN=C(N)N)C(=O)N[C@@H](CCCN=C(N)N)C(=O)N[C@@H](CCCN=C(N)N)C(=O)N[C@@H](CCCN=C(N)N)C(=O)N1CCC[C@H]1C(=O)N[C@H](C(=O)N[C@@H](CCCN=C(N)N)C(=O)N1CCC[C@H]1C(=O)N1CCC[C@H]1C(=O)N[C@@H](Cc1ccccc1)C(=O)N[C@@H](Cc1ccc(O)cc1)C(=O)N[C@@H](CCCN=C(N)N)C(=O)O)[C@@H](C)CC [RWRRPIRRRPIRPPFYR],MIC,Escherichia coli BW25113,4 µM
CC(C)C[C@H](NC(=O)[C@H](Cc1c[nH]c2ccccc12)NC(=O)[C@H](CCCN=C(N)N)NC(=O)[C@H](CC(C)C)NC(=O)[C@H](Cc1c[nH]c2ccccc12)NC(=O)[C@H](CC(C)C)NC(=O)[C@H](CC(C)C)NC(=O)[C@H](Cc1c[nH]c2ccccc12)NC(=O)[C@@H](N)CC(C)C)C(N)=O [LWLLWLRWL],MIC,[1],3.12 µM
CC(C)C[C@H](NC(=O)[C@H](Cc1c[nH]c2ccccc12)NC(=O)[C@H](Cc1c[nH]c2ccccc12)NC(=O)[C@H](CC(C)C)NC(=O)[C@H](Cc1c[nH]c2ccccc12)NC(=O)[C@@H](N)Cc1c[nH]c2ccccc12)C(=O)N[C@@H](Cc1c[nH]c2ccccc12)C(=O)N[C@@H](Cc1c[nH]c2ccccc12)C(=O)N[C@@H](CCCN=C(N)N)C(N)=O [WWLWWLWWR],MIC,[1],3.12 µM
CC[C@H](C)[C@H](NC(=O)[C@H](CCC(=O)O)NC(=O)[C@H](CC(N)=O)NC(=O)[C@H](CC(C)C)NC(=O)[C@H](C)NC(=O)[C@H](C)NC(=O)[C@H](CCCCN)NC(=O)CNC(=O)[C@H](C)NC(=O)[C@H](CC(N)=O)NC(=O)[C@H](CCCCN)NC(=O)[C@H](CC(C)C)NC(=O)[C@@H](NC(=O)[C@H](CCC(=O)O)NC(=O)[C@H](CCCCN)NC(=O)[C@H](Cc1c[nH]c2ccccc12)NC(=O)[C@H](CC(C)C)NC(=O)[C@H](C)N)C(C)C)C(=O)N[C@@H](CC(N)=O)C(=O)N[C@@H](CC(N)=O)C(=O)N[C@@H](CC(C)C)C(=O)N[C@H](C(=O)N[C@@H](CCC(N)=O)C(N)=O)C(C)C [ALWKEVLKNAGKAALNEINNLVQ],MIC,[16],≥ 512 µM
same,MIC,[17],16 µM
same,MIC,[18],16 µM
same,MIC,[19],≥ 32 µM
same,MIC,[10],64 µM
same,MIC,[20],≥ 32 µM
CC[C@H](C)[C@H](NC(=O)[C@H](CC(C)C)NC(=O)[C@H](CCCCN)NC(=O)[C@@H](NC(=O)[C@@H](NC(=O)[C@H](Cc1cnc[nH]1)NC(=O)[C@@H]1CCCN1C(=O)[C@H](CC(C)C)NC(=O)[C@@H](NC(=O)[C@H](CCCCN)NC(=O)[C@H](C)NC(=O)[C@H](Cc1c[nH]c2ccccc12)NC(=O)[C@H](CC(C)C)NC(=O)[C@H](CO)NC(=O)[C@H](C)NC(=O)[C@H](CCSC)NC(=O)CN)C(C)C)C(C)C)C(C)C)C(=O)N[C@@H](CCCCN)C(=O)O [GMASLWAKVLPHVVKLIK],MIC,Bacillus subtilis 168,4.7 µM
same,MIC,[14],1.7 µM
same,MIC,Staphylococcus aureus,6 µM
same,MIC,Pseudomonas aeruginosa,53.3 µM
same,MIC,Escherichia coli B,2.3 µM
same,MIC,[15],8.7 µM
